Assay results from patent US20100093811A1 (priority 2007, published 2010).
Counter-ions that a name gives are not always drawn. Like-named read-outs stand apart in the source and are kept apart here.

Assays:
wild-type HIV-1 protease = wild-type HIV-1 protease (Human immunodeficiency virus type 1 group M subtype B, UniProt P04585); experiment: Assay for inhibition of microbial expressed HIV protease; format: biochemical
Procedure, shortened: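 Inhibition taken from HPLC (C18) product peak areas after phosphoric acid quench. Reaction: 440 micromolar Val-Ser-Gln-Asn-(betanapthyl)Ala-Pro-Ile-Val peptide, 5 pM E. coli-made protease, 1 h at 30° C, following 30 min room-temperature inhibitor preincubation in pH 5.5 acetate/NaCl/BSA buffer.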

[1] = tested on: acute HIV infection of T-lymphoid cells; experiment: Assay for inhibition of HIV replication (spread assay); format: cell-based, HIV-1; settings: Human immunodeficiency virus 1, T-lymphoid; read-out: Spread - IC95
Description: • Assay for Inhibition of HIV Replication
Assays for the inhibition of acute HIV infection of T-lymphoid cells were conducted in accordance with Vacca, J. P. et al., Proc. Natl. Acad. Sci. USA 1994, 91: 4096.

[2] = wild-type HIV-1 protease expressed in E. coli, peptide substrate, pH 5.5, read-out: Enzyme Inhibition - IC50

SMILES: CC[C@@H](CCC[C@@H](CO)N(CC(C)C)S(=O)(=O)c1ccc(CO)cc1)NC(=O)[C@H](Cc1ccccc1Cl)NC(=O)OC [Example J21, 2-chloro-N-{(1S,55)-1-ethyl-6-hydroxy-5-[{[4-(hydroxymethyl)phenyl]sulfonyl}(isobutyl)amino]hexyl}-Nα-(methoxycarbonyl)-L-phenylalaninamide]
- IC50 (wild-type HIV-1 protease; [2]): 0.419 nM
- IC95 [1]: 49 nM

SMILES: COC(=O)N[C@H](C(=O)N[C@H](CCC[C@@H](CO)N(CC(C)C)S(=O)(=O)c1ccc(CO)cc1)C1CC1)C(c1ccccc1)c1ccccc1 [Example J22]
- IC50 (wild-type HIV-1 protease; [2]): 0.032 nM
- IC95 [1]: 15 nM

SMILES: COC(=O)N[C@H](C(=O)N[C@H](CCC[C@@H](CO)N(CC(C)C)S(=O)(=O)c1ccc(CO)cc1)C1CC1)C(c1ccc(F)cc1)c1ccc(F)cc1 [Example J23, N-{(1R,5S)-1-cyclopropyl-6-hydroxy-5-[{[4-(hydroxymethyl)phenyl]sulfonyl}(isobutyl)amino]hexyl}-4-fluoro-β-(4-fluorophenyl)-Nα-(methoxycarbonyl)-L-phenylalaninamide]
- IC50 (wild-type HIV-1 protease; [2]): 0.025 nM
- IC95 [1]: 60 nM

SMILES: CC[C@@H](CCC[C@@H](CO)N(CC(C)C)S(=O)(=O)c1ccc(CO)cc1)NC(=O)[C@@H](NC)C(c1ccccc1)c1ccccc1 [Example J24, N-{(1S,5S)-1-ethyl-6-hydroxy-5-[{[4-(hydroxymethyl)phenyl]sulfonyl}(isobutyl)amino]hexyl}-Nα-methyl-β-phenyl-L-phenylalaninamide hydrochloride]
- IC50 (wild-type HIV-1 protease): 0.055 nM
- IC95 [1]: 16 nM

SMILES: CN[C@H](C(=O)N[C@H](CCC[C@@H](CO)N(CC(C)C)S(=O)(=O)c1ccc(CO)cc1)C1CC1)C(c1ccccc1)c1ccccc1 [Example J25, N-{(1R,55)-1-cyclopropyl-6-hydroxy-5-[{[4-(hydroxymethyl)phenyl]sulfonyl}(isobutyl)amino]hexyl}-Nα-methyl-β-phenyl-L-phenylalaninamide]
- IC50 (wild-type HIV-1 protease; [2]): 0.08 nM
- IC95 [1]: 17 nM

SMILES: COC(=O)N[C@@H](Cc1ccccc1Cl)C(=O)N[C@H](CCC[C@@H](CO)N(CCC(C)C)S(=O)(=O)c1ccc(CO)cc1)C(C)C [Example J26, 2-chloro-N-{(1R,5S)-6-hydroxy-5-[{[4-(hydroxymethyl)phenyl]sulfonyl}(3-methylbutyl)amino]-1-isopropylhexyl}-Nα-(methoxycarbonyl)-L-phenylalaninamide]
- IC50 (wild-type HIV-1 protease; [2]): 1.33 nM
- IC95 [1]: 110 nM

SMILES: CC[C@@H](CCC[C@@H](CO)N(CCC(C)C)S(=O)(=O)c1ccc(CO)cc1)NC(=O)[C@@H](NC)C(c1ccccc1)c1ccccc1 [Example J27, N-{(1S,5S)-1-ethyl-6-hydroxy-5-[{[4-(hydroxymethyl)phenyl]sulfonyl}(3-methylbutyl)amino]hexyl}-Nα-methyl-β-phenyl-L-phenylalaninamide]
- IC50 (wild-type HIV-1 protease; [2]): 0.025 nM
- IC95 [1]: 6 nM

SMILES: CN[C@H](C(=O)N[C@H](CCC[C@@H](CO)N(CCC(C)C)S(=O)(=O)c1ccc(CO)cc1)C1CC1)C(c1ccccc1)c1ccccc1 [Example J28, N-{(1R,5S)-1-cyclopropyl-6-hydroxy-5-[{[4-(hydroxymethyl)phenyl]sulfonyl}(3-methylbutyl)amino]hexyl}-Nα-methyl-β-phenyl-L-phenylalaninamide]
- IC50 (wild-type HIV-1 protease; [2]): 0.01 nM
- IC95 [1]: 8 nM

SMILES: CN[C@H](C(=O)N[C@H](CCC[C@@H](CO)N(CCC(C)C)S(=O)(=O)c1ccc(CO)cc1)C(C)C)C(c1ccccc1)c1ccccc1 [Example J29, N-{(1R,5S)-6-hydroxy-5-[{[4-(hydroxymethyl)phenyl]sulfonyl}(3-methylbutyl)amino]-1-isopropylhexyl}-Nα-methyl-β-phenyl-L-phenylalaninamide]
- IC50 (wild-type HIV-1 protease; [2]): 0.039 nM
- IC95 [1]: 16 nM

SMILES: COC(=O)N[C@H](C(=O)N[C@H](CCC[C@@H](CO)N(CC(C)C)S(=O)(=O)c1ccc(CO)cc1)C(F)(F)F)C(c1ccccc1)c1ccccc1 [Example J30, N-[(1R,5S)-6-hydroxy-5-[{[4-(hydroxymethyl)phenyl]sulfonyl}(isobutyl)amino]-1-(trifluoromethyl)hexyl]-Nα-(methoxycarbonyl)-β-phenyl-L-phenylalaninamide]
- IC50 (wild-type HIV-1 protease; [2]): 0.01 nM
- IC95 [1]: 21 nM

SMILES: CC[C@@H](CCC[C@@H](CO)N(CCC(C)C)S(=O)(=O)c1ccc(CO)cc1)NC(=O)[C@@H](N)C(c1ccccc1)c1ccccc1 [Example J31, N-{(1S,5S)-1-ethyl-6-hydroxy-5-[{[4-(hydroxymethyl)phenyl]sulfonyl}(3-methylbutyl)amino]hexyl}-β-phenyl-L-phenylalaninamide hydrochloride]
- IC50 (wild-type HIV-1 protease): 0.01 nM
- IC95 [1]: 23 nM

SMILES: CC[C@@H](CCC[C@@H](CO)N(CC(C)C)S(=O)(=O)c1ccc(CO)cc1)NC(=O)[C@@H](N)C(c1ccccc1)c1ccccc1 [Example J32, N-{(1S,5S)-1-ethyl-6-hydroxy-5-[{[4-(hydroxymethyl)phenyl]sulfonyl}(isobutyl)amino]hexyl}-β-phenyl-L-phenylalaninamide hydrochloride]
- IC50 (wild-type HIV-1 protease): 0.01 nM
- IC95 [1]: 25 nM

SMILES: CCCN([C@H](CO)CCC[C@H](CC)NC(=O)[C@@H](NC(=O)OC)C(c1ccccc1)c1ccccc1)S(=O)(=O)c1ccc(CO)cc1 [Example J34, N-{(1S,5S)-1-ethyl-6-hydroxy-5-[{[4-(hydroxymethyl)phenyl]sulfonyl}(propyl)amino]hexyl}-Nα-(methoxycarbonyl)-β-phenyl-L-phenylalaninamide]
- IC50 (wild-type HIV-1 protease; [2]): 0.041 nM
- IC95 [1]: 20 nM

SMILES: CC[C@@H](CCC[C@@H](CO)N(C(C)C)S(=O)(=O)c1ccc(CO)cc1)NC(=O)[C@@H](NC)C(c1ccccc1)c1ccccc1 [Example J35, N-{(1S,5S)-1-ethyl-6-hydroxy-5-[{[4-(hydroxymethyl)phenyl]sulfonyl}(isopropyl)amino]hexyl}-Nα-methyl-β-phenyl-L-phenylalaninamide hydrochloride]
- IC50 (wild-type HIV-1 protease): 0.569 nM
- IC95 [1]: 25 nM

SMILES: CC[C@@H](CCC[C@@H](CO)N(C(C)C)S(=O)(=O)c1ccc(CO)cc1)NC(=O)[C@@H](N)C(c1ccccc1)c1ccccc1 [Example J36, N-{(1S,5S)-1-ethyl-6-hydroxy-5-[{[4-(hydroxymethyl)phenyl]sulfonyl}(isopropyl)amino]hexyl}-β-phenyl-L-phenylalaninamide]
- IC50 (wild-type HIV-1 protease; [2]): 0.098 nM
- IC95 [1]: 27 nM

SMILES: COC(=O)N[C@@H](Cc1ccccc1Br)C(=O)N[C@H](CCC[C@@H](CO)N(C(C)C)S(=O)(=O)c1ccc(CO)cc1)C1CC1 [Example J37, 2-bromo-N-{(1R,5S)-1-cyclopropyl-6-hydroxy-5-[{[4-(hydroxymethyl)phenyl]sulfonyl}(isopropyl)amino]hexyl}-Nβ-(methoxycarbonyl)-L-phenylalaninamide]
- IC50 (wild-type HIV-1 protease; [2]): 0.595 nM
- IC95 [1]: 37 nM

SMILES: CCCN([C@H](CO)CCC[C@H](CC)NC(=O)[C@@H](NC)C(c1ccccc1)c1ccccc1)S(=O)(=O)c1ccc(CO)cc1 [Example J38, N-{(1S,5S)-1-ethyl-6-hydroxy-5-[{[4-(hydroxymethyl)phenyl]sulfonyl}(propyl)amino]hexyl}-Nα-methyl-β-phenyl-L-phenylalaninamide]
- IC50 (wild-type HIV-1 protease; [2]): 0.098 nM
- IC95 [1]: 34 nM

SMILES: CCCN([C@H](CO)CCC[C@H](CC)NC(=O)[C@@H](N)C(c1ccccc1)c1ccccc1)S(=O)(=O)c1ccc(CO)cc1 [Example J39, N-{(1S,5S)-1-ethyl-6-hydroxy-5-[{[4-(hydroxymethyl)phenyl]sulfonyl}(propyl)amino]hexyl}-β-phenyl-L-phenylalaninamide]
- IC50 (wild-type HIV-1 protease; [2]): 0.016 nM
- IC95 [1]: 39 nM
